Literature values as cited in patent US20240424165A1, “NEW COATING OF IMPLANTS” (Universität Münster, priority 2021, published 2024).
Values after ≈ are worked out from the molar mass of the structure shown.

Test system: S. aureus

For `CO[C@H]1/C=C/O[C@@]2(C)Oc3c(C)c(O)c4c(O)c(c(/C=N/N5CCN(C)CC5)c(O)c4c3C2=O)NC(=O)/C(C)=C\C=C\[C@H](C)[C@H](O)[C@@H](C)[C@@H](O)[C@@H](C)[C@H](OC(C)=O)[C@@H]1C` [rifampin], the MIC is given as 0.06 µg/mL (≈ 0.0729 µM).
